Experimental data: US8785457B2 (Cellzome Limited, priority 2009, dated 2014)
Where two headings read alike, the source gives them in different places.

Key:
[1] = molecular target: T1, mTOR (Homo sapiens, UniProt P42345); assay: mTOR kinobeads assay (competitive binding in Jurkat cell lysate, immunodetection); settings: kinobeads assay
T1 construct: endogenous in cells; host or cells: Jurkat, clone E6-1 (ATCC TIB-152) cell lysate
Method in brief: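 IC50 derived from dose-response curves of mTOR captured on immobilized phenylmorpholin-chromen beads, detected by antibody dot blot with infrared fluorescence.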

[2] = system: S6RP serine-240/244 phosphorylation; assay: In vitro Phospho-S6 cellular assay (pS6RP S240/244) in HEK293T/17 cells; format: cell-based; settings: Homo sapiens, 2 hours, read-out: pS6 IC50
Description: Activation of mTOR signaling results in phosphorylation of several downstream targets. In cells, mTOR exists in two different protein complexes. The mTOR Complex-1 (mTORC1) phosphorylates and activates S6 Kinase 1 (S6K1) and S6 Kinase 2 (S6K2) (also known as p70S6K) which then phosphorylate S6 Ribosomal Protein (S6RP) (also known as RPS6)3. S6RP is phosphorylated on serine 235, serine 236, serine 240 and serine 244 by both pS6K1 and pS6K2. The mTOR Complex-2 (mTORC2) phosphorylates AKT on serine 473 which activates the AKT signaling pathway.
The assay measures a test compound's inhibition of S6RP serine-240/244 phosphorylation and inhibition of Akt serine-473 phosphorylation in human embryonic kidney derived HEK293T/17 cells (ATCC CRL-11268).
The HEK293T/17 cell line is maintained in DMEM media (Invitrogen catalogue number 41965-039) supplemented with 10% FCS at 37° C. in a 5% CO2 humidified incubator.
Cells are seeded in 96-well plates at 40,000 cells/well (pS6RP S240/244 assay) or 80,000 cells/well (pAkt S473 assay) in 90 μl growth media (DMEM, 2% FCS). Plates are incubated for 1 hour in a humidified incubator to allow the cells to adhere. Cells are treated with 8 concentrations of test compounds or DMSO alone for controls (final DMSO concentration 0.1%) and incubated at 37° C. for 2 hours. Then 20 μl of 5× concentrated lysis buffer (750 mM NaCl, 100 mM Tris pH7.4, 5 mM ADTA, 5 mM EGTA, 5% Triton X-100) is added, plates are sealed and incubated for 15 minutes at 4° C. with gentle shaking. After cell lysis, 25 μl cell lysate is transferred to a MesoScale plate coated with an antibody to pS6RP Ser240/244 (MesoScale Discovery K150DGD-3) or an antibody to pAkt Ser 473 (MesoScale Discovery K151DGD-3). Plates have been blocked before by incubation with 150 μl MesoScale Discovery Blocking Solution-A for 1 hour at room temperature followed by washing with 150 μl 1× Tris wash buffer per well. After the transfer of the cell lysate to the MSD plate, the pS6RP (or pAkt) protein is captured on the coated antibody by incubation at room temperature for 1 hour with gentle shaking. After the capture step the plate is washed three times with 150 μl of 1× Tris wash buffer per well. Then 25 μl detection antibody conjugated with a Sulfo-Tag is added and incubated for 1 hour at room temperature with gentle shaking. Subsequently the antibody solution is removed and the plate is washed 3 times with 150 μl×Tris wash buffer per well and 150 μl Read buffer is added. The plates are analysed on a MSD 2400 Plate Reader (MesoScale Discovery). Data analysis is performed using nonlinear regression for a sigmoidal dose-response with a variable slope.

[3] = Table 4, read-out: Inhibition values (IC50) mTor
[4] = Table 6, read-out: Inhibition values (IC50) mTOR

SMILES	IC50 [1, 3] [nM]	IC50 [1, 4] [nM]	IC50 [2] [nM]
C[C@H]1COCCN1c1nc(-c2ccc(NC(=O)NC3CCC3)cc2)nc2c1CN(C)C2 [Example 55, (S)-1-cyclobutyl-3-(4-(6-methyl-4-(3-methylmorpholino)-6,7-dihydro-5H-pyrrolo[3,4-d]pyrimidin-2-yl)phenyl)urea]	100 to 1000	100 to 1000	435
CCNC(=O)Nc1ccc(-c2nc3c(c(N4CCOC[C@@H]4C)n2)CN(C(C)=O)C3)cc1 [Example 18, (S)-1-(4-(6-acetyl-4-(3-methylmorpholino)-6,7-dihydro-5H-pyrrolo[3,4-d]pyrimidin-2-yl)phenyl)-3-ethylurea]	< 100	< 100	443
CCNC(=O)Nc1ccc(-c2nc3c(c(N4CCOC[C@@H]4C)n2)CN(C(=O)C(C)(C)C)C3)cc1 [Example 22, (S)-1-ethyl-3-(4-(4-(3-methylmorpholino)-6-pivaloyl-6,7-dihydro-5H-pyrrolo[3,4-d]pyrimidin-2-yl)phenyl)urea]	100 to 1000	100 to 1000	87
CCNC(=O)Nc1ccc(-c2nc3c(c(N4CCOC[C@@H]4C)n2)CN(CC)C3)cc1 [Example 39, (S)-1-ethyl-3-(4-(6-ethyl-4-(3-methylmorpholino)-6,7-dihydro-5H-pyrrolo[3,4-d]pyrimidin-2-yl)phenyl)urea]	< 100	< 100	140
C[C@H]1COCCN1c1nc(-c2ccc(NC(=O)NC3CC3)cc2)nc2c1CN(C)C2 [Example 38, (S)-1-cyclopropyl-3-(4-(6-methyl-4-(3-methylmorpholino)-6,7-dihydro-5H-pyrrolo[3,4-d]pyrimidin-2-yl)phenyl)urea]	< 100	< 100	170
CC(C)NC(=O)Nc1ccc(-c2nc3c(c(N4CCOC[C@@H]4C)n2)CN(CC2CC2)C3)cc1 [Example 50, (S)-1-(4-(6-(cyclopropylmethyl)-4-(3-methylmorpholino)-6,7-dihydro-5H-pyrrolo[3,4-d]pyrimidin-2-yl)phenyl)-3-isopropylurea]	100 to 1000	100 to 1000	423
C[C@H]1COCCN1c1nc(-c2ccc(NC(N)=O)cc2)nc2c1CN(CC1CC1)C2 [Example 48, (S)-1-(4-(6-(cyclopropylmethyl)-4-(3-methylmorpholino)-6,7-dihydro-5H-pyrrolo[3,4-d]pyrimidin-2-yl)phenyl)urea]	100 to 1000	100 to 1000	698
CCNC(=O)Nc1ccc(-c2nc3c(c(N4CCOC[C@@H]4C)n2)CNCC3)cc1 [Example 12, (S)-1-ethyl-3-(4-(4-(3-methylmorpholino)-5,6,7,8-tetrahydropyrido[4,3-d]pyrimidin-2-yl)phenyl)urea]	100 to 1000	100 to 1000	839
CNC(=O)Nc1ccc(-c2nc3c(c(N4CCOC[C@@H]4C)n2)CCNC3)cc1 [Example 16, (S)-1-methyl-3-(4-(4-(3-methylmorpholino)-5,6,7,8-tetrahydropyrido[3,4-d]pyrimidin-2-yl)phenyl)urea]	< 100	< 100	297
CC(C)N1Cc2nc(-c3ccc(NC(=O)NC4CC4)cc3)nc(N3CCOC[C@@H]3C)c2C1 [Example 46, (S)-1-cyclopropyl-3-(4-(6-isopropyl-4-(3-methylmorpholino)-6,7-dihydro-5H-pyrrolo[3,4-d]pyrimidin-2-yl)phenyl)urea]	< 100	< 100	147
C[C@H]1COCCN1c1nc(-c2ccc(NC(=O)NC3CC3)cc2)nc2c1CN(CC1CC1)C2 [Example 30]	< 100	< 100	170
CCNC(=O)Nc1ccc(-c2nc3c(c(N4CCOC[C@@H]4C)n2)CN(C=O)C3)cc1 [Example 8, (S)-1-ethyl-3-(4-(6-formyl-4-(3-methylmorpholino)-6,7-dihydro-5H-pyrrolo[3,4-d]pyrimidin-2-yl)phenyl)urea]	< 100	< 100	289
